Values of other authors, collected in patent US8584539B2, “Delivery device for dispensing pharmaceutical dosage forms into dissolution testing apparatus” (Rohm and Haas Company, priority 2010, dated 2013).
Where two headings read alike, the source gives them in different places.

In the case of `O=C(O)Cc1ccccc1Nc1c(Cl)cccc1Cl` [diclofenac sodium], the solubility (low pH of the stomach) is listed as “essentially insoluble” and the solubility (near neutral conditions of the upper GI) is listed as “soluble”.
